Laboratory results taken from US20250206759A1, “FUSED RING COMPOUND, PHARMACEUTICAL COMPOSITION CONTAINING SAME, AND USE OF FUSED RING COMPOUND” (CHENGDU HYPERWAY PHARMACEUTICALS CO., LTD., priority 2022, published 2025).
Like-named read-outs stand apart in the source and are kept apart here.

Experiments:
GP2d cells = assay: 3D cell proliferation inhibition test (CellTiter-Glo), GP2d cells; format: cell-based; conditions: 7 days, read-out: GP2d cells 3D CTG IC50
Description: (§1) The diluted compounds to be tested were added to 384-well low-adhesion cell culture plates by using a nanoliter pipetting system (LABCYTE, P-0200). Then, the cells were plated and incubated in a 37° C., […] incubator for 7 days. Afterward, CellTiter-Glo® […] reagent was added, and the luminescent values were read by an Envision multifunctional microplate reader (the luminescent signal is proportional to the amount of ATP in the system, and the ATP content directly represents the number of viable cells in the system). Finally, the IC50 values (half-maximal inhibitory concentration) of the compounds were obtained by the XLFIT software using the nonlinear fitting formula.
(§2) a) The diluted compounds to be tested were added to 384-well low-adsorption cell culture plates by using a nanoliter pipetting system.
(§3) b) Cells were seeded into the 384-well plates in a) and then centrifuged at 1000 rpm for 1 min at room temperature, with a final DMSO concentration of compound being 0.5%. The plates were then incubated in a 37° C., 5% CO2 constant temperature incubator for 7 days.
(§4) c) CellTiter-Glo® 3D was added to the 384-well cell culture plates in b), shaken in the dark, and incubated at room temperature.
(§5) d) The luminescence values were read by using an Envision multifunctional microplate reader.
(§6) The IC50 (half-maximal inhibitory concentration) values of the compounds were obtained by using XLFIT software according to the following nonlinear fitting formula:
(§7) [formula] • X: log value of compound concentration. • Y: inhibition rate (%)
(§8) Inhibition rate (%)=100×(average value of negative control−compound)/(average value of negative control−average value of positive control)
(§9) Positive control: Medium only.

[1] = test system: KRas G12D-mediated ERK phosphorylation; assay: Inhibition of KRas G12D-mediated ERK phosphorylation in AGS cells; format: cell-based; conditions: read-out: AGS-pERK IC50
Description: Day 1: AGS cells were seeded into 384-well cell culture plates and cultured overnight in a 37° C., 5% CO2 incubator.
Day 2: The compounds were added to the plates using Echo550 and incubated for 3 h in a 37° C., 5% CO2 incubator. Then cells were fixed with paraformaldehyde, permeated with methanol, and blocked with the blocking solution. Finally, a mixed solution of primary antibodies (rabbit anti pERK, mouse anti GAPDH) was added, and the mixture was incubated at 4° C. overnight.
Day 3: The mixed solution of primary antibodies was discarded, and a mixed solution of secondary antibodies (goat anti rabbit 800CW, goat anti mouse 680RD) was added. The mixture was incubated at room temperature in the dark. Finally, the cell culture plate was washed with PBST, and then inverted for 1 minute of centrifugation. The fluorescence signal values were read with Odyssey CLx.
ERK phosphorylation was calculated according to the following formula: […]
X: log value of compound concentration.
Y: average value of relative expression of p-ERK between replicate wells.

ASPC-1 cells = assay: 3D cell proliferation inhibition test (CellTiter-Glo), ASPC-1 cells; format: cell-based; conditions: 7 days, read-out: ASPC-1 cells 3D CTG IC50
Description: as §1, §2, §3, §4, §5, §6, §7, §8, §9

[2] = Pharmacokinetics of compounds in rats (oral); format: in vivo, SD rats; conditions: for AUC / Cmax: male SD rats
Description: Male SD rats were purchased from Shanghai SIPPR-Bk Lab Animal Co., Ltd. Each test compound was administered orally (3 rats per group) once to SD rats for pharmacokinetic study. The test compounds were prepared on the day of administration. The test compounds were suspended in 5% DMSO+95% saline, and then vortexed for 2 min and ultrasonicated for 5 min to prepare the administration system. The animals were fasted for 10-14 h before oral administration, and the feeding was resumed 4 h after administration. After oral administration by gavage, pharmacokinetic samples were collected from SD rats through the jugular vein. The collection time points were: before administration, 15 min, 30 min, 1 h, 2 h, 4 h, 6 h, 8 h and 24 h after administration. Three whole blood samples were collected at each time point, with a collection volume of about 0.2 mL, and anticoagulated with sodium heparin. After blood samples were collected, they were immediately placed on ice and centrifuged to separate plasma within 1 hour (centrifugation conditions: 6800 rpm, 6 min, 2-8° C.). The collected plasma was stored in a −80° C. refrigerator before analysis.

[3] = male, SD, rat, plasma, po, 100 mg/kg, 100 mg/kg, read-out: AUC
[4] = male, SD, rat, plasma, po, 100 mg/kg, 100 mg/kg, read-out: Cmax

Row | IC50 [1] [nM] | AUC ([2]; 100 mg/kg) [ng·h/mL] | Cmax ([2]; 100 mg/kg) [ng/mL] | IC50 (ASPC-1 cells) [nM] | oral pharmacokinetics (Cmax and AUC) ([2]; SD rats) | AUC ([2]; 10 mg/kg) | Cmax ([2]; 10 mg/kg) [ng/mL] | Compound | IC50 (GP2d cells; 168 h) [nM] | IC50 ([1]; Homo sapiens, AGS) [nM] | IC50 (ASPC-1 cells; Homo sapiens, ASPC1, 168 h) [nM] | AUC [2, 3] [ng·h/mL] | Cmax [2, 4] [ng/mL] | IC50 (GP2d cells) [nM]
1 |  |  |  |  |  |  |  | Oc1cc(-c2ncc3c(N4CC5CCC(C4)N5)nc(OCC45CCCN4[C@@H](c4ccc(C(F)(F)F)c(F)c4)CC5)nc3c2F)c2c(F)c(F)ccc2c1 (mixture of isomers) [Example 225] | 1.49 | 1.5 | 11.1 | 380 | 54 | 
2 | 0.83 | 404 | 96 | 13.9 |  |  |  | Oc1cc(-c2ncc3c(N4C[C@H]5CC[C@@H](C4)N5)nc(OCC45CCCN4C(c4ccc6c(c4)OC(F)(F)O6)CC5)nc3c2F)c2c(F)c(F)ccc2c1 (stereo partly drawn) [Example 142, 4-(4-((1R,5S)-3,8-diazabicyclo[3.2.1]octan-3-yl)-2-((3-(2,2-difluorobenzo[d][1,3]dioxy-5-yl)tetrahydro-1H-pyrrolizin-7a(5H)-yl)methoxy)-8-fluoropyrido[4,3d]pyrimidin-7-yl)-5,6-difluoronaphthalen-2-ol] |  |  |  |  |  | 1.15
3 |  |  |  |  |  |  |  | C#Cc1c(F)ccc2cc(O)cc(-c3ncc4c(N5CC6CCC(C5)N6)nc(OCC56CCCN5C(c5ccc7c(c5)C5CCC7O5)CC6)nc4c3F)c12 (stereo not shown) [Example 192] | 3.51 | 1.8 | 12.2 | 284 | 96 | 
4 | 1.2 | 70 | 26 | 10.9 | extremely poor | No parameter | 1 to 2 | C#Cc1c(F)ccc2cc(O)cc(-c3ncc4c(N5CC6CCC(C5)N6)nc(OC[C@@]56CCCN5C[C@H](F)C6)nc4c3F)c12 [MRTX1133, reference compound] |  |  |  |  |  | 1.38

Row | Compound | IC50 [1] [nM] | AUC ([2]; 100 mg/kg) [ng·h/mL] | Cmax ([2]; 100 mg/kg) [ng/mL] | IC50 (ASPC-1 cells) [nM] | oral pharmacokinetics (Cmax and AUC) ([2]; SD rats) | AUC ([2]; 10 mg/kg) | Cmax ([2]; 10 mg/kg) [ng/mL] | IC50 (GP2d cells; 168 h) [nM] | IC50 ([1]; Homo sapiens, AGS) [nM] | IC50 (ASPC-1 cells; Homo sapiens, ASPC1, 168 h) [nM] | AUC [2, 3] [ng·h/mL] | Cmax [2, 4] [ng/mL] | IC50 (GP2d cells) [nM]
5 | Oc1cc(-c2ncc3c(N4CC5CCC(C4)N5)nc(OCC45CCCN4[C@@H](c4cc(F)c(F)c(F)c4)CC5)nc3c2F)c2c(F)c(F)ccc2c1 (single isomer, unassigned) [Example 223] | 0.74 | 404 | 260 |  |  |  |  | 0.67 |  | 3.09 |  |  | 
